According to paper PMC9856672, “SGC-CAMKK2-1: A Chemical Probe for CAMKK2” (Cells, 2023):

Assays:
HIPK3 = target: T1, HIPK3 (Homo sapiens, UniProt Q9H422); test: KINOMEscan at 1 μM, HIPK3; assay type: binding; settings: 1000 nM, read-out: Percent Control
T1 construct: purchased Eurofins DiscoverX KINOMEscan
Text: (§1) Supplement cells-12-00287-s001.zip/File S2. KinomeScan data for the CAMKK2 probe and negative control.xlsx, sheet "SGC-CAMKK2-1N" | column: Percent Control

[1] = target: T2, ABL1(Q252H)-phosphorylated (Homo sapiens, UniProt P00519, Q252H); test: KINOMEscan at 1 μM, ABL1(Q252H)-phosphorylated; assay type: binding; settings: 1000 nM, read-out: Percent Control
T2 construct: purchased Eurofins DiscoverX KINOMEscan
Text: as §1

CAMK2A = target: T3, CAMK2A (Homo sapiens, UniProt Q9UQM7); test: KINOMEscan at 1 μM, CAMK2A; assay type: binding; settings: 1000 nM, read-out: Percent Control
T3 construct: purchased Eurofins DiscoverX KINOMEscan
T3 sequence (Q9UQM7 whole entry): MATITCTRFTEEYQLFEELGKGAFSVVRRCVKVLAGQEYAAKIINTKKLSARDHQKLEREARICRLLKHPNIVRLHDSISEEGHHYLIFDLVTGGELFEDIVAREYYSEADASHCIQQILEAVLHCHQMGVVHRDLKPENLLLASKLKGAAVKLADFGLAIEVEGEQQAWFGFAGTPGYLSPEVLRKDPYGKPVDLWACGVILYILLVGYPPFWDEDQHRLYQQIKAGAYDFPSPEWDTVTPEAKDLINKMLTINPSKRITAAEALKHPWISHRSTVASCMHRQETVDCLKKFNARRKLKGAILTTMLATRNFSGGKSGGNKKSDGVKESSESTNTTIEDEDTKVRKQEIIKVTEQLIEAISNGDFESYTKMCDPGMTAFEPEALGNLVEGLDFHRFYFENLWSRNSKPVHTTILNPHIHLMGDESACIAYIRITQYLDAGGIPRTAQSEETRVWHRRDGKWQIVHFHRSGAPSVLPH
Text: as §1

NEK4 = target: T4, NEK4 (Homo sapiens, UniProt P51957); test: KINOMEscan at 1 μM, NEK4; assay type: binding; settings: 1000 nM, read-out: Percent Control
T4 construct: purchased Eurofins DiscoverX KINOMEscan
Text: as §1

MKNK2 = target: T5, MKNK2 (Homo sapiens, UniProt Q9HBH9); test: KINOMEscan at 1 μM, MKNK2; assay type: binding; settings: 1000 nM, read-out: Percent Control
T5 construct: purchased Eurofins DiscoverX KINOMEscan
T5 sequence (Q9HBH9 whole entry): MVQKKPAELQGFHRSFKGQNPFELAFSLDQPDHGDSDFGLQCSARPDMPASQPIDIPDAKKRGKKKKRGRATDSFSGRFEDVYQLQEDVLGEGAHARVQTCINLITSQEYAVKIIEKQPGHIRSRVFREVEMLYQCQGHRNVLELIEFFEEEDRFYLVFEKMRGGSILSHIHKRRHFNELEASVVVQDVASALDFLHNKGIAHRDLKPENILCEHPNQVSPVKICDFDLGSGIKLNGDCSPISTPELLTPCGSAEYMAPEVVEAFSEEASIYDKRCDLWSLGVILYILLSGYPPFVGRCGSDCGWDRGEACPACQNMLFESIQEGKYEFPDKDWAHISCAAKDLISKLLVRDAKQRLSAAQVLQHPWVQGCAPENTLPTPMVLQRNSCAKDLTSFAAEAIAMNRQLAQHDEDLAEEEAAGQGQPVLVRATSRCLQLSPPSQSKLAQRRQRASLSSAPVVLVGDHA
Text: as §1

CDK4-cyclinD1 = target: T6, CDK4-cyclinD1 (Homo sapiens, UniProt P11802); test: KINOMEscan at 1 μM, CDK4-cyclinD1; assay type: binding; settings: 1000 nM, read-out: Percent Control
T6 construct: purchased Eurofins DiscoverX KINOMEscan
Text: as §1

SGK2 = target: T7, SGK2 (Homo sapiens, UniProt Q9HBY8); test: KINOMEscan at 1 μM, SGK2; assay type: binding; settings: 1000 nM, read-out: Percent Control
T7 construct: purchased Eurofins DiscoverX KINOMEscan
T7 sequence (Q9HBY8 whole entry): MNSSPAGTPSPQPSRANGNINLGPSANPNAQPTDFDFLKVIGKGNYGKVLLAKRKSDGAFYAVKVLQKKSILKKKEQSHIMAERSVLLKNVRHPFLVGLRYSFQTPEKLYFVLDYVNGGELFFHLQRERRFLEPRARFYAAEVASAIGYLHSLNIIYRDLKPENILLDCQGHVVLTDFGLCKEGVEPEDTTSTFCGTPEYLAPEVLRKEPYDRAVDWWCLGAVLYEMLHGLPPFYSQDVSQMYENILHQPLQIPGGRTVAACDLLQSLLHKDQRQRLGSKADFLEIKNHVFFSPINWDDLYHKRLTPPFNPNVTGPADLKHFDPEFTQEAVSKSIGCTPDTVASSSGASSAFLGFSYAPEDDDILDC
Text: as §1

PLK1 = target: T8, PLK1 (Homo sapiens, UniProt P53350); test: KINOMEscan at 1 μM, PLK1; assay type: binding; settings: 1000 nM, read-out: Percent Control
T8 construct: purchased Eurofins DiscoverX KINOMEscan
Text: as §1

MAP4K5 = target: T9, MAP4K5 (Homo sapiens, UniProt Q9Y4K4); test: KINOMEscan at 1 μM, MAP4K5; assay type: binding; settings: 1000 nM, read-out: Percent Control
T9 construct: purchased Eurofins DiscoverX KINOMEscan
Text: as §1

DRAK2 = target: T10, DRAK2 (Homo sapiens, UniProt O94768); test: KINOMEscan at 1 μM, DRAK2; assay type: binding; settings: 1000 nM, read-out: Percent Control
T10 construct: purchased Eurofins DiscoverX KINOMEscan
T10 sequence (O94768 whole entry): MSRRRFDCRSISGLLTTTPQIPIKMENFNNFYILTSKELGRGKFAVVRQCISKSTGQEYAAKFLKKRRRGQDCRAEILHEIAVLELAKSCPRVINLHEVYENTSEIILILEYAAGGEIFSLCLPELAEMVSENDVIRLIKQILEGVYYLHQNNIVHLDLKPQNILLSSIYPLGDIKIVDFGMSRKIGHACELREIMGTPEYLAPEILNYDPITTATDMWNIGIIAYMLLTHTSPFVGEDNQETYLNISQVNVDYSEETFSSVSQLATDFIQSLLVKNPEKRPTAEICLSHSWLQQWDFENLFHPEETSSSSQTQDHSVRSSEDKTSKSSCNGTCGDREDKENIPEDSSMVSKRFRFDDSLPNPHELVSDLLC
Text: as §1

MYLK4 = target: T11, MYLK4 (Homo sapiens, UniProt Q86YV6); test: KINOMEscan at 1 μM, MYLK4; assay type: binding; settings: 1000 nM, read-out: Percent Control
T11 construct: purchased Eurofins DiscoverX KINOMEscan
Text: as §1

MEK1 = target: T12, MEK1 (Homo sapiens, UniProt Q02750); test: KINOMEscan at 1 μM, MEK1; assay type: binding; settings: 1000 nM, read-out: Percent Control
T12 construct: purchased Eurofins DiscoverX KINOMEscan
Text: as §1

PYK2 = target: T13, PYK2 (Homo sapiens, UniProt Q14289); test: KINOMEscan at 1 μM, PYK2; assay type: binding; settings: 1000 nM, read-out: Percent Control
T13 construct: purchased Eurofins DiscoverX KINOMEscan
Text: as §1

p38-delta = target: T14, p38-delta (Homo sapiens, UniProt O15264); test: KINOMEscan at 1 μM, p38-delta; assay type: binding; settings: 1000 nM, read-out: Percent Control
T14 construct: purchased Eurofins DiscoverX KINOMEscan
Text: as §1

ACVR1B = target: T15, ACVR1B (Homo sapiens, UniProt P36896); test: KINOMEscan at 1 μM, ACVR1B; assay type: binding; settings: 1000 nM, read-out: Percent Control
T15 construct: purchased Eurofins DiscoverX KINOMEscan
T15 sequence (P36896 24-505): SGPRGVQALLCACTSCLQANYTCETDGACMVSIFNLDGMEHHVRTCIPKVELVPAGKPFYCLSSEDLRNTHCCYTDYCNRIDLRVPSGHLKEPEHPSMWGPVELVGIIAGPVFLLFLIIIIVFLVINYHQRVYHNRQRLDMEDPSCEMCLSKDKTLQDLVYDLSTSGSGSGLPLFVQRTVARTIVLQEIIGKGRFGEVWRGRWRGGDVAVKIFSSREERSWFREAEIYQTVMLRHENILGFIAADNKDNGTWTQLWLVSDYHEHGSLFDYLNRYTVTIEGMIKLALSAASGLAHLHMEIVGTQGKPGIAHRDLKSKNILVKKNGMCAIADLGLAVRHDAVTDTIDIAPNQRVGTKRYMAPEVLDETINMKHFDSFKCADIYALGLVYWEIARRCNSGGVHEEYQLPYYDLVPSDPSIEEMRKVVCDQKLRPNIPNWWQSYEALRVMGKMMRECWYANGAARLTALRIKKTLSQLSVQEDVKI
Text: as §1

GSK3A = target: T16, GSK3A (Homo sapiens, UniProt P49840); test: KINOMEscan binding assay at 1 μM, GSK3A; settings: Compound Concentration 1000 nM; read-out: Percent Control
T16 construct: purchased Eurofins DiscoverX KINOMEscan
Text: as §1

TNK1 = target: T17, TNK1 (Homo sapiens, UniProt Q13470); test: KINOMEscan binding assay at 1 μM, TNK1; settings: Compound Concentration 1000 nM; read-out: Percent Control
T17 construct: purchased Eurofins DiscoverX KINOMEscan
Text: as §1

STK35 = target: T18, STK35 (Homo sapiens, UniProt Q8TDR2); test: KINOMEscan 1 μM, STK35; assay type: binding; settings: 1000 nM; Entrez STK35; read-out: Percent Control
T18 construct: purchased Eurofins DiscoverX KINOMEscan
Text: (§2) Supplement cells-12-00287-s001.zip/File S2. KinomeScan data for the CAMKK2 probe and negative control.xlsx, sheet "SGC-CAMKK2-1" | column: Percent Control

TAOK2 = target: T19, TAOK2 (Homo sapiens, UniProt Q9UL54); test: KINOMEscan 1 μM, TAOK2; assay type: binding; settings: 1000 nM; Entrez TAOK2; read-out: Percent Control
T19 construct: purchased Eurofins DiscoverX KINOMEscan
Text: as §2

CDKL3 = target: T20, CDKL3 (Homo sapiens, UniProt Q8IVW4); test: KINOMEscan 1 μM, CDKL3; assay type: binding; settings: 1000 nM; Entrez CDKL3; read-out: Percent Control
T20 construct: purchased Eurofins DiscoverX KINOMEscan
T20 sequence (Q8IVW4 whole entry): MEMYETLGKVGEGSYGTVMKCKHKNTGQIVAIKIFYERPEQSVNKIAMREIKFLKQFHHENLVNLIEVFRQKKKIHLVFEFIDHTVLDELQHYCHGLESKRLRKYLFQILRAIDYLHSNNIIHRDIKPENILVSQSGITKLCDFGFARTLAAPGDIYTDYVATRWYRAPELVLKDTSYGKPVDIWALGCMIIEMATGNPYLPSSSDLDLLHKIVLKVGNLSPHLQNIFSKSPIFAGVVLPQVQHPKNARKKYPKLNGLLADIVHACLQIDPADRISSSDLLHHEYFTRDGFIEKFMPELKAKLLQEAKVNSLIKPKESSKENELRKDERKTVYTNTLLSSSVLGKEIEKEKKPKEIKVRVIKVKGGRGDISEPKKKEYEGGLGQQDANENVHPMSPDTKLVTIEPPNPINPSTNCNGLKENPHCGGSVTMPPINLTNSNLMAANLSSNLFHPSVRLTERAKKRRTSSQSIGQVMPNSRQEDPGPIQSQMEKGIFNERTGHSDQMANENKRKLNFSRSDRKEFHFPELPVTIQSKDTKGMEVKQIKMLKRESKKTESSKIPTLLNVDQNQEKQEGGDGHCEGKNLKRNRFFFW
Text: as §2

MTOR = target: T21, MTOR (Homo sapiens, UniProt P42345); test: KINOMEscan 1 μM, MTOR; assay type: binding; settings: 1000 nM; Entrez MTOR; read-out: Percent Control
T21 construct: purchased Eurofins DiscoverX KINOMEscan
Text: as §2

TSSK3 = target: T22, TSSK3 (Homo sapiens, UniProt Q96PN8); test: KINOMEscan 1 μM, TSSK3; assay type: binding; settings: 1000 nM; Entrez TSSK3; read-out: Percent Control
T22 construct: purchased Eurofins DiscoverX KINOMEscan
Text: as §2

LIMK1 = target: T23, LIMK1 (Homo sapiens, UniProt P53667); test: KINOMEscan 1 μM, LIMK1; assay type: binding; settings: 1000 nM; Entrez LIMK1; read-out: Percent Control
T23 construct: purchased Eurofins DiscoverX KINOMEscan
T23 sequence (P53667 whole entry): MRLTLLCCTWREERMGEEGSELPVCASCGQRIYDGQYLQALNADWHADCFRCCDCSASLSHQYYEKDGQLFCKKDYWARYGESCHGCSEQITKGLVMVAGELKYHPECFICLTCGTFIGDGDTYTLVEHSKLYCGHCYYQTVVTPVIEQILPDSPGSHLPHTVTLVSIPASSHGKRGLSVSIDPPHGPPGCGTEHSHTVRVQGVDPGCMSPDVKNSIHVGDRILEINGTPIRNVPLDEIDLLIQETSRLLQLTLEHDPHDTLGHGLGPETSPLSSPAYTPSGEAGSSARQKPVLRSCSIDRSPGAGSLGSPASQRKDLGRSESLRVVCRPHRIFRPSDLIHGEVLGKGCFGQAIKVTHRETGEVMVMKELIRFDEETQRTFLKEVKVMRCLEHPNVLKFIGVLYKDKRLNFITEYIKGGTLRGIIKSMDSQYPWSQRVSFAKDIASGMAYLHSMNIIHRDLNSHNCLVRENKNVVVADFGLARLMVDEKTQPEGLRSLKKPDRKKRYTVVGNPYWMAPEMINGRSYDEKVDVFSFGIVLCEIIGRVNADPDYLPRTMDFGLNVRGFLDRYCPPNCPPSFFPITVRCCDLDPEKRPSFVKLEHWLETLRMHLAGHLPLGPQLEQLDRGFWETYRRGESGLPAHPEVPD
Text: as §2

EPHB2 = target: T24, EPHB2 (Homo sapiens, UniProt P29323); test: KINOMEscan 1 μM, EPHB2; assay type: binding; settings: 1000 nM; Entrez EPHB2; read-out: Percent Control
T24 construct: purchased Eurofins DiscoverX KINOMEscan
Text: as §2

GRK2 = target: T25, GRK2 (Homo sapiens, UniProt P25098); test: KINOMEscan 1 μM, GRK2; assay type: binding; settings: 1000 nM; Entrez ADRBK1; read-out: Percent Control
T25 construct: purchased Eurofins DiscoverX KINOMEscan
Text: as §2

LRRK2(G2019S) = target: T26, LRRK2(G2019S) (Homo sapiens, UniProt Q5S007, G2019S); test: KINOMEscan 1 μM, LRRK2(G2019S); assay type: binding; settings: 1000 nM; Entrez LRRK2; read-out: Percent Control
T26 construct: purchased Eurofins DiscoverX KINOMEscan
Text: as §2

MARK4 = target: T27, MARK4 (Homo sapiens, UniProt Q96L34); test: KINOMEscan 1 μM, MARK4; assay type: binding; settings: 1000 nM; Entrez MARK4; read-out: Percent Control
T27 construct: purchased Eurofins DiscoverX KINOMEscan
Text: as §2

MKNK1 = target: T28, MKNK1 (Homo sapiens, UniProt Q9BUB5); test: KINOMEscan 1 μM, MKNK1; assay type: binding; settings: 1000 nM; Entrez MKNK1; read-out: Percent Control
T28 construct: purchased Eurofins DiscoverX KINOMEscan
T28 sequence (Q9BUB5 whole entry): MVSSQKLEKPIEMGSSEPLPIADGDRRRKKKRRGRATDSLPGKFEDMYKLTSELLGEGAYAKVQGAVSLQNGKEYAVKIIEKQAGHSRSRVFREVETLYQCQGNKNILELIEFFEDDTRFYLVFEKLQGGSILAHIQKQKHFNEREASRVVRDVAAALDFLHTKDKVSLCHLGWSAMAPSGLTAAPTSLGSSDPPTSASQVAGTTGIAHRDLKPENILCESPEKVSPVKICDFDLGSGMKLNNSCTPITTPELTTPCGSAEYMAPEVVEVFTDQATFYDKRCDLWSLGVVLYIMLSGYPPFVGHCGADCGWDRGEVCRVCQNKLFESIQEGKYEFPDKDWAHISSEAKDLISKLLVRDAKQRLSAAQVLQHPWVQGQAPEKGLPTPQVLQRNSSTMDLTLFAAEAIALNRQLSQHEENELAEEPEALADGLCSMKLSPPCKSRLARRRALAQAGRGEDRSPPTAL
Text: as §2

PHKG2 = target: T29, PHKG2 (Homo sapiens, UniProt P15735); test: DiscoverX KINOMEscan binding assay at 1 μM, PHKG2; settings: Compound Concentration 1000 nM, read-out: Percent Control
T29 construct: purchased Eurofins DiscoverX KINOMEscan
T29 sequence (P15735 whole entry): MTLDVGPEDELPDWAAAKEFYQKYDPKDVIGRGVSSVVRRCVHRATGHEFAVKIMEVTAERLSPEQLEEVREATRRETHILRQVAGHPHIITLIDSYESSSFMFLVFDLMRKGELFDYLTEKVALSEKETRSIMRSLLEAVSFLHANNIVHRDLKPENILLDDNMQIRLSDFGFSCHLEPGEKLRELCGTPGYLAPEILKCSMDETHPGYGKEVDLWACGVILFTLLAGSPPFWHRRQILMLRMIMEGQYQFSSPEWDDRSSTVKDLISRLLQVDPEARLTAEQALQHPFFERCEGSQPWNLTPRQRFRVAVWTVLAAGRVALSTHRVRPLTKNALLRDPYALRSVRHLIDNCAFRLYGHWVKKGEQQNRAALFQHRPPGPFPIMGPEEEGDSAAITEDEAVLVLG
Text: as §2

PIK3CB = target: T30, PIK3CB (Homo sapiens, UniProt P42338); test: DiscoverX KINOMEscan binding assay at 1 μM, PIK3CB; settings: Compound Concentration 1000 nM, read-out: Percent Control
T30 construct: purchased Eurofins DiscoverX KINOMEscan
Text: as §2

PKAC-beta = target: T31, PKAC-beta (Homo sapiens, UniProt P22694); test: DiscoverX KINOMEscan binding assay at 1 μM, PKAC-beta; settings: PKAC-beta (PRKACB); Compound Concentration 1000 nM; read-out: Percent Control
T31 construct: purchased Eurofins DiscoverX KINOMEscan
Text: as §2

PRKCD = target: T32, PRKCD (Homo sapiens, UniProt Q05655); test: DiscoverX KINOMEscan binding assay at 1 μM, PRKCD; settings: Compound Concentration 1000 nM, read-out: Percent Control
T32 construct: purchased Eurofins DiscoverX KINOMEscan
Text: as §2

ROCK1 = target: T33, ROCK1 (Homo sapiens, UniProt Q13464); test: DiscoverX KINOMEscan binding assay at 1 μM, ROCK1; settings: Compound Concentration 1000 nM, read-out: Percent Control
T33 construct: purchased Eurofins DiscoverX KINOMEscan
Text: as §2

TGFBR1 = target: T34, TGFBR1 (Homo sapiens, UniProt P36897); test: DiscoverX KINOMEscan binding assay at 1 μM, TGFBR1; settings: Compound Concentration 1000 nM, read-out: Percent Control
T34 construct: purchased Eurofins DiscoverX KINOMEscan
T34 sequence (P36897 34-503): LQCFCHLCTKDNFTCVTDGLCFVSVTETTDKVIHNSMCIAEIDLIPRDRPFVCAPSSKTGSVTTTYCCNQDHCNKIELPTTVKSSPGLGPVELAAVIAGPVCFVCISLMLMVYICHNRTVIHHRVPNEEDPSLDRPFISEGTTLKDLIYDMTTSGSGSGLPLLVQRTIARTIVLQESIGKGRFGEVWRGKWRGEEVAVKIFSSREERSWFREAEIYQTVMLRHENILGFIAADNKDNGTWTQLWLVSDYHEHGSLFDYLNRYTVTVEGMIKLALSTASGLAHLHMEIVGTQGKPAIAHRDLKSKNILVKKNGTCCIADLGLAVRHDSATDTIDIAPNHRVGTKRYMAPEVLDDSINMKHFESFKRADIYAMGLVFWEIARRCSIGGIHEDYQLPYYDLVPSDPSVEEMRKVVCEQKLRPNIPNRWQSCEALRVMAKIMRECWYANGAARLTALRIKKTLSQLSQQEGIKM
Text: as §2

TNNI3K = target: T35, TNNI3K (Homo sapiens, UniProt Q59H18); test: DiscoverX KINOMEscan binding assay at 1 μM, TNNI3K; settings: Compound Concentration 1000 nM, read-out: Percent Control
T35 construct: purchased Eurofins DiscoverX KINOMEscan
Text: as §2

O=C(O)c1ccc(-c2coc3ncc(-c4ccccc4)cc23)cc1Cl [SGC-CAMKK2-1N (UNC-YL-83)]
remaining binding at 1 µM (HIPK3): 40% | remaining binding at 1 µM [1]: 61% | remaining binding at 1 µM (CAMK2A): 65% | remaining binding at 1 µM (NEK4): 66% | remaining binding at 1 µM (MKNK2): 67% | remaining binding at 1 µM (CDK4-cyclinD1): 70% | remaining binding at 1 µM (SGK2): 73% | remaining binding at 1 µM (PLK1): 79% | remaining binding at 1 µM (MAP4K5): 89% | remaining binding at 1 µM (DRAK2): 90% | remaining binding at 1 µM (MYLK4): 91% | remaining binding at 1 µM (MEK1): 93% | remaining binding at 1 µM (PYK2): 96% | remaining binding at 1 µM (p38-delta): 98% | remaining binding at 1 µM (ACVR1B): 100% | remaining binding at 1 µM (GSK3A): 100% | remaining binding at 1 µM (TNK1): 100%

Cc1cccc(-c2cnc3occ(-c4ccc(C(=O)O)c(C5CCCC5)c4)c3c2)c1 [SGC-CAMKK2-1 (YL-36)]
remaining binding at 1 µM (STK35): 73% | remaining binding at 1 µM (TAOK2): 90% | remaining binding at 1 µM (CDKL3): 96% | remaining binding at 1 µM (MTOR): 98% | remaining binding at 1 µM (TSSK3): 98% | remaining binding at 1 µM (LIMK1): 99% | remaining binding at 1 µM (EPHB2): 100% | remaining binding at 1 µM (GRK2): 100% | remaining binding at 1 µM (LRRK2(G2019S)): 100% | remaining binding at 1 µM (MARK4): 100% | remaining binding at 1 µM (MKNK1): 100% | remaining binding at 1 µM (PHKG2): 100% | remaining binding at 1 µM (PIK3CB): 100% | remaining binding at 1 µM (PKAC-beta): 100% | remaining binding at 1 µM (PRKCD): 100% | remaining binding at 1 µM (ROCK1): 100% | remaining binding at 1 µM (TGFBR1): 100% | remaining binding at 1 µM (TNNI3K): 100%
